Results on twelve compounds are retold here after patent US20250059205A1, “Heterocyclic Compounds and Methods of Use” (AMGEN INC., priority 2021, published 2025).

Usually IC50 stands for the concentration that gives 50% inhibition.

Assay [1] addresses His-tagged KRAS G12D protein (Homo sapiens, UniProt P01116, G12D). Briefly: KRAS G12D TR-FRET Assay. In kind it is binding. As for the experimental part: Compounds of interest were prepared in a dose-response titration in DMSO, and 80 nL were added via Labcyte Echo to each well of a 384-well plate (Perkin Elmer 6008280). […] The plate was incubated for 30 minutes at room temperature. Biotinylated KRPep-2d substrate (Amgen) was diluted to 20 nM in Assay Buffer and 2 μL was added to all wells and incubated for 1 h at room temperature. Detection Reagent (0.4 nM LANCE Eu-W1024 Anti-6xHis (Perkin Elmer AD0401), 5 nM streptavidin-d2 (Cisbio 610SADLA)) was prepared in Assay Buffer, then 4 μL was added to the plate and incubated for 1 h at room temperature. Plates were read using PerkinElmer EnVision (ex: 320 nm, em1: 665 nm, em2: 615 nm) and em1/em2 data was used to generate curve fits using a 4-parameter logistic model to calculate IC50 values.
In general terms: TR-FRET usually uses a lanthanide donor and a delayed reading to cut background.

Assay [2] concerns the target GDP-bound KRAS protein (aa 1-169), containing both G12D and C118A amino acid substitutions (Homo sapiens, UniProt P01116, C118A/G12D). Briefly: KRAS G12D Coupled Nucleotide Exchange Assay. In kind it is biochemical. To be noted: 2 h compound pre-incubation. As to the method:
Following compound pre-incubation, purified SOS protein (aa 564-1049) and GTP (Roche 10106399001) were added to the assay wells and incubated for an additional 30 min. […] The assay plates were then read on a PerkinElmer EnVision Multilabel Reader, using AlphaScreen® technology, and data were analyzed using a 4-parameter logistic model to calculate IC50 values.

Assay [3] has as its system Phosphorylation of ERK1/2 in AsPC-1 cells. Description: Phospho-ERK1/2 MSD Assay (AsPC-1 cells). To be noted: Homo sapiens, ASPC1, 2 h, 2 hours treatment, read-out: p-ERK (AsPC-1 cells) IC50. The class given is cell-based. As to the method: (§1) AsPC-1 (ATCC® CRL-1682™) cells were cultured in RPMI 1640 Medium (ThermoFisher Scientific 11875093) containing 10% fetal bovine serum (ThermoFisher Scientific 16000044) and 1× penicillin-streptomycin-glutamine (ThermoFisher Scientific 10378016). Sixteen hours prior to compound treatment, AsPC-1 cells were seeded in 96-well cell culture plates at a density of 25,000 cells/well and incubated at 37° C., 5% CO2. A compound dose-response titration was diluted in growth media, added to appropriate wells of a cell culture plate, and then incubated at 37° C., 5% CO2 for 2 hours. Following compound treatment, cells were washed with ice-cold Dulbecco's phosphate-buffered saline, no Ca^2+ or Mg^2+ (ThermoFisher Scientific 14190144), and then lysed in RIPA buffer (50 mM Tris-HCl pH 7.5, 1% Igepal, 0.5% sodium deoxycholate, 150 mM NaCl, and 0.5% sodium dodecyl sulfate) containing protease inhibitors (Roche 4693132001) and phosphatase inhibitors (Roche 4906837001). Phosphorylation of ERK1/2 in compound-treated lysates was assayed using Phospho-ERK1/2 Whole Cell Lysate kits (Meso Scale Discovery K151DWD) according to the manufacturer's protocol. Assay plates were read on a Meso Scale Discovery Sector Imager 6000, and data were analyzed using a 4-parameter logistic model to calculate IC50 values.

The subject of assay [4] is Phosphorylation of ERK1/2 in A-427 cells. Description: Phospho-ERK1/2 MSD Assay (A-427 cells). In kind it is cell-based. To be noted: Homo sapiens, A-427, 2 h, 2 h treatment, read-out: p-ERK (A427 cells) IC50. As for the experimental part:
as §1, with “A-427” for “AsPC-1”, “HTB-53™)” for “CRL-1682™)”, “h.” for “hours.”

Chain of His-tagged KRAS G12D protein (P01116 1-188 isoform P01116-2 G12D): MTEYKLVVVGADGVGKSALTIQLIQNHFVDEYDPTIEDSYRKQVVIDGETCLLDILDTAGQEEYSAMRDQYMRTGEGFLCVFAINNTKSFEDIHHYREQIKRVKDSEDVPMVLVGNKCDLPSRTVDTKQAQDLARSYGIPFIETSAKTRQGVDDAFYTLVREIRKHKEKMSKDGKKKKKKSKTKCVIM
Chain of GDP-bound KRAS protein (aa 1-169), containing both G12D and C118A amino acid substitutions (P01116 1-169 isoform P01116-2 G12D/C118A): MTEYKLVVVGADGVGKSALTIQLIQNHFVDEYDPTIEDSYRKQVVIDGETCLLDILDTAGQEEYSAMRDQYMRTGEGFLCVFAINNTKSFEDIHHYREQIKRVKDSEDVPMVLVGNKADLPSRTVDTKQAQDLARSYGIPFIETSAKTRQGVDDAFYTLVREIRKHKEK

Consider `Fc1c(-c2cccc(Cl)c2C(F)(F)F)ccc2c(N3C[C@H]4CC[C@@H](C3)N4)nc(OC[C@@]34CCCN3C[C@H](F)C4)nc12` [Example 156, 4-((1R,5S)-3,8-diazabicyclo[3.2.1]octan-3-yl)-7-(3-chloro-2-(trifluoromethyl)phenyl)-8-fluoro-2-(((2R,7aS)-2-fluorotetrahydro-1H-pyrrolizin-7a(5H)-yl)methoxy) quinazoline], for which the IC50 in assay [1] worked out at 7 nM; in assay [3] it was 881 nM; in assay [4], 1180 nM. The “Avg 2 h Coupled Exchange IC50” value in assay [2] was determined as 3 nM.
In the case of `CCc1c(F)ccc2cc(O)cc(-c3cc4nc(OC[C@@]56CCCN5C[C@H](F)C6)nc(N5C[C@H]6CC[C@@H](C5)N6)c4cc3N)c12` [Example 203, 4-(6-Amino-4-((1R,5S)-3,8-diazabicyclo[3.2.1]octan-3-yl)-2-(((2R,7aS)-2-fluorotetrahydro-1H-pyrrolizin-7a(5H)-yl)methoxy)quinazolin-7-yl)-5-ethyl-6-fluoronaphthalen-2-ol], the half-maximal inhibitory concentration (IC50) is 6 nM in assay [1], 171 nM in assay [3] and 62 nM in assay [4]. Further, the “Avg 2 h Coupled Exchange IC50” value in assay [2] amounted to 2 nM.
In the case of `Oc1cc(-c2ccc3c(N4[C@@H]5CC[C@H]4CNC5)nc(OC[C@@]45CCCN4C[C@H](F)C5)nc3c2F)c2ccccc2c1` [Example 1, 4-(4-((1R,5S)-3,8-Diazabicyclo[3.2.1]octan-8-yl)-8-fluoro-2-(((2R,7aS)-2-fluorotetrahydro-1H-pyrrolizin-7a(5H)-yl)methoxy)quinazolin-7-yl)naphthalen-2-ol], the IC50 in assay [1] worked out at 4 nM; in assay [3], 420 nM; in assay [4], 171 nM. Further, the “Avg 2 h Coupled Exchange IC50” value in assay [2] is 3 nM.
On the same counts, the results for `Cc1cc2[nH]ncc2c(-c2c(F)cc3c(N4C[C@H]5CC[C@@H](C4)N5)nc(OC[C@@]45CCCN4C[C@H](F)C5)nc3c2F)c1Cl` [Example 75, 4-((1R,5S)-3,8-diazabicyclo[3.2. 1]octan-3-yl)-7-(5-chloro-6-methyl-1H-indazol-4-yl)-6,8-difluoro-2-(((2R,7aS)-2-fluorotetrahydro-1H-pyrrolizin-7a(5H)-yl)methoxy) quinazoline] are 5 nM, 297 nM, 139 nM and 3 nM.
On the same counts, the results for `Oc1cc(-c2cc3nc(OC[C@@]45CCCN4C[C@H](F)C5)nc(N4C[C@@H]5CC[C@H]4CN5)c3cc2F)c2c(F)c(F)ccc2c1` [Example 173, 4-(4-((1S,4S)-2,5-diazabicyclo[2.2.2]octan-2-yl)-6-fluoro-2-(((2R,7aS)-2-fluorotetrahydro-1H-pyrrolizin-7a(5H)-yl)methoxy)quinazolin-7-yl)-5,6-difluoronaphthalen-2-ol] are 2 nM, 366 nM, 153 nM and 3 nM.
In the case of `CN1C[C@H](F)C[C@H]1COc1nc(N2[C@@H]3CC[C@H]2CNC3)c2cc(F)c(-c3cc(O)cc4ccccc34)c(F)c2n1` [Example 17, 4-(4-((1R,5S)-3,8-diazabicyclo[3.2. 1]octan-8-yl)-6,8-difluoro-2-(((2S,4R)-4-fluoro-1-methylpyrrolidin-2-yl)methoxy)quinazolin-7-yl)naphthalen-2-ol], the half-inhibitory concentration (IC50) in assay [1] stood at 26 nM; in assay [3] it was 949 nM; in assay [4] it was 1290 nM. In assay [2], the “Avg 2 h Coupled Exchange IC50” value was found to be 17 nM.
`Cc1ccc2[nH]ncc2c1-c1ccc2c(N3C[C@H]4CC[C@@H](C3)N4)nc(OC[C@@]34CCCN3C[C@H](F)C4)nc2c1F` [Example 195, 4-((1R,5S)-3,8-diazabicyclo[3.2.1]octan-3-yl)-8-fluoro-2-(((2R,7aS)-2-fluorotetrahydro-1H-pyrrolizin-7a(5H)-yl)methoxy)-7-(5-methyl-1H-indazol-4-yl)quinazoline]: the figures for the IC50 in assay [1], in assay [3] and in assay [4] were 40 nM, 2670 nM and 2380 nM, respectively. In addition, in assay [2], the “Avg 2 h Coupled Exchange IC50” value is 17 nM.
As to `CCc1c(F)ccc2cc(O)cc(-c3c(F)cc4c(N5[C@@H]6CC[C@H]5CNC6)nc(OC[C@@H]5C[C@@H](F)CN5C)nc4c3F)c12` [Example 158, 4-(4-((1R,5S)-3,8-diazabicyclo[3.2.1]octan-8-yl)-6,8-difluoro-2-(((2S,4R)-4-fluoro-1-methylpyrrolidin-2-yl)methoxy)quinazolin-7-yl)-5-ethyl-6-fluoronaphthalen-2-ol], the IC50 in assay [1] is 7 nM; in assay [3], 511 nM; in assay [4], 228 nM. In addition, the “Avg 2 h Coupled Exchange IC50” value in assay [2] was determined as 4 nM.
With `C#Cc1c(F)ccc2cc(O)cc(-c3c(F)cc4c(N5C[C@H]6CC[C@@H](C5)N6)nc(OC[C@@]56CCCN5C[C@H](F)C6)nc4c3F)c12` [Example 189, 4-(4-((1R,5S)-3,8-diazabicyclo[3.2.1]octan-3-yl)-6,8-difluoro-2-(((2R,7aS)-2-fluorotetrahydro-1H-pyrrolizin-7a(5H)-yl)methoxy)quinazolin-7-yl)-5-ethynyl-6-fluoronaphthalen-2-ol], the values for the IC50 in assay [1], in assay [3] and in assay [4] were 4 nM, 2 nM and 1 nM, respectively. Also, in assay [2], the “Avg 2 h Coupled Exchange IC50” value was determined as 3 nM.
For `Fc1c(-c2c(C(F)(F)F)ccc3[nH]ncc23)ccc2c(N3C[C@H]4CC[C@@H](C3)N4)nc(OC[C@@]34CCCN3C[C@H](F)C4)nc12` [Example 194, 4-((1R,5S)-3,8-diazabicyclo[3.2.1]octan-3-yl)-8-fluoro-2-(((2R,7aS)-2-fluorotetrahydro-1H-pyrrolizin-7a(5H)-yl)methoxy)-7-(5-(trifluoromethyl)-1H-indazol-4-yl)quinazoline], the 50% inhibitory concentration (IC50) stood at 14 nM in assay [1], 815 nM in assay [3] and 843 nM in assay [4]. Moreover, in assay [2], the “Avg 2 h Coupled Exchange IC50” value is 10 nM.
On to `CCc1c(F)ccc2cc(O)cc(-c3ccc4c(N5[C@@H]6CC[C@H]5CNC6)nc(OC[C@@]56CCCN5C[C@H](F)C6)nc4c3F)c12` [Example 146, 4-(4-((1R,5S)-3,8-diazabicyclo[3.2.1]octan-8-yl)-8-fluoro-2-(((2R,7aS)-2-fluorotetrahydro-1H-pyrrolizin-7a(5H)-yl)methoxy)quinazolin-7-yl)-5-ethyl-6-fluoronaphthalen-2-ol], for which the figures for the IC50 in assay [1], in assay [3] and in assay [4] were 1 nM, 129 nM and 83 nM, respectively. In assay [2], the “Avg 2 h Coupled Exchange IC50” value turned out to be 3 nM.
On the same counts, the results for `Oc1cc(-c2ccc3c(N4C[C@H]5C[C@@H](C4)N5)nc(OCC45CCCN4CC(F)(F)C5)nc3c2F)c2ccccc2c1` (stereo partly drawn) [Example 8, 4-(4-((1R,5S)-3,6-diazabicyclo[3.1. 1]heptan-3-yl)-2-((2,2-difluorotetrahydro-1H-pyrrolizin-7a(5H)-yl)methoxy)-8-fluoroquinazolin-7-yl)naphthalen-2-ol] are 92 nM, 6940 nM, 7880 nM and 87 nM.
